For experiment [1], the target named is T1, glutathione-S-transferase (GST) tagged LXRbeta LBD (ligand binding domain) (Homo sapiens, UniProt P55055).
T1 construct: purchased Invitrogen pv4658.pps
T1 sequence (P55055 222-460 limits assumed): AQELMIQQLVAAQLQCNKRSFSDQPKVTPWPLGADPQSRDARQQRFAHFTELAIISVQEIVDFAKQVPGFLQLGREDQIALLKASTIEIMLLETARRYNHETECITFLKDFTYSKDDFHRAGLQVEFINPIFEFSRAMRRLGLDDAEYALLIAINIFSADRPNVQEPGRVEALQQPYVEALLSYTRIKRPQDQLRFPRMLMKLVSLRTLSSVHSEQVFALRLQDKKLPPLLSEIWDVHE
Kind of experiment: LanthaScreen TR-FRET Liver X Receptor Coactivator Assay, co-activator recruitment to LXRbeta LBD. Format: biochemical. Conditions: for Emax: read-out: LXR beta Activity @ max dose (%); for EC50: potency (Inflection Point, IP), co-activator recruitment to LXRbeta LBD, in relation to T0901317. A digest of the protocol:
(§1)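 GST-tagged LBD added to test compound, then fluorescein-labelled coactivator peptide plus terbium anti-GST antibody; incubated at room temperature, TR-FRET read. Potency given as inflection point and efficacy as Emax relative to reference dual agonist T0901317.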

Experiment [2] addresses T2, glutathione-S-transferase (GST) tagged LXRalpha LBD (ligand binding domain) (Homo sapiens, UniProt Q13133).
T2 construct: purchased Invitrogen pv4655
T2 sequence (Q13133 209-447 limits assumed): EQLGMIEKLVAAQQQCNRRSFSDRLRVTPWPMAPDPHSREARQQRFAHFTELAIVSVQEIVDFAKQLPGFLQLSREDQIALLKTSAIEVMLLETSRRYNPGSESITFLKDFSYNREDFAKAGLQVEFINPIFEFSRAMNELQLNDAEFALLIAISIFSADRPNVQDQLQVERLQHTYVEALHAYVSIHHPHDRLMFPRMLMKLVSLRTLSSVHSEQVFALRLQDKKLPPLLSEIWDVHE
Kind of experiment: LanthaScreen TR-FRET Liver X Receptor Coactivator Assay, co-activator recruitment to LXRalpha LBD. To be noted: for Emax: read-out: LXR alpha Activity @ max dose (%); for EC50 / LXR alpha IP (nM): potency (Inflection Point, IP), co-activator recruitment to LXRalpha LBD, in relation to T0901317; for EC50: read-out: LXR alpha IP. It counts as biochemical. The gist of the method:
as §1

[3] abbreviates: efficacy at max dose, in relation to reference dual agonist T0901317.

Read-outs that look alike come from different tables or passages of the source.

Take `CN(C)C(=O)c1ccc(N2CCC(CC3CCN(C(=O)OC(C)(C)C)CC3)CC2)cc1Cl` [Example 1-1, tert-butyl 4-((1-(3-chloro-4-(dimethylcarbamoyl)phenyl)piperidin-4-yl)methyl)piperidine-1-carboxylate]: the Emax in experiment [1] (setting [3]) came out at 63%; in experiment [2] (setting [3]), 22%. The results for the EC50 in experiment [1] (read-out: LXR beta IP) and in experiment [2] were 136 nM and 844 nM, respectively.
Consider `CNC(=O)c1ccc(N2CCC(CC3CCN(C(=O)[C@](O)(c4cc(Cl)cc(Cl)c4)C(F)(F)F)CC3)CC2)cc1Cl` [Example 7-116, 2-chloro-4-[4-({1-[(2R)-2-(3,5-dichlorophenyl)-3,3,3-trifluoro-2-hydroxypropanoyl]piperidin-4-yl}methyl)piperidin-1-yl]-N-methylbenzamide], for which the Emax in experiment [1] (setting [3]) was 76%; in experiment [2] (setting [3]) it was 9%. For the same compound, in experiment [1] (read-out: LXR beta IP), the EC50 amounted to 13 nM. Further, the “LXR alpha IP (nM)” value in experiment [2] was “NO IP”.
The matching figures for `NC(=O)c1ccc(N2CCC(CC3CCN(C(=O)[C@](O)(c4cc(Cl)cc(Cl)c4)C(F)(F)F)CC3)CC2)cc1Cl` [Example 12-1, 2-chloro-4-[4-({1-[(2R)-2-(3,5-dichlorophenyl)-3,3,3-trifluoro-2-hydroxypropanoyl]piperidin-4-yl}methyl)piperidin-1-yl]benzamide]: 37%, 9%, 3 nM and “NO IP”.
Turning to `O=C(c1ccc(N2CCC(CC3CCN(C(=O)[C@](O)(c4ccccc4)C(F)(F)F)CC3)CC2)cc1Cl)N1CCC1` [Example 4-1, (R)-1-(4-((1-(4-(azetidine-1-carbonyl)-3-chlorophenyl)piperidin-4-yl)methyl)piperidin-1-yl)-3,3,3-trifluoro-2-hydroxy-2-phenylpropan-1-one], the Emax in experiment [1] (setting [3]) stood at 72%; in experiment [2] (setting [3]), 31%. Besides, the values for the EC50 in experiment [1] (read-out: LXR beta IP) and in experiment [2] were 53 nM and 555 nM, respectively.
On to `Cc1cc(N2CCC(CC3CCN(C(=O)OC(C)(C)C)CC3)CC2)ccc1C(=O)N(C)C` [Example 1-2, tert-butyl 4-({1-[4-(dimethylcarbamoyl)-3-methylphenyl]piperidin-4-yl}methyl)piperidine-1-carboxylate], for which the Emax in experiment [1] (setting [3]) worked out at 58%; in experiment [2] (setting [3]) it was 13%. Moreover, in experiment [1] (read-out: LXR beta IP), the EC50 was 240 nM. In experiment [2], the “LXR alpha IP (nM)” value is “NO IP”.
With `CN(C)C(=O)c1ccc(N2CCC(CC3CCN(C(=O)[C@](O)(c4cc(Cl)cc(Cl)c4)C(F)(F)F)CC3)CC2)nc1Cl` [Example 7-104, 2-chloro-6-[4-({1-[(2R)-2-(3,5-dichlorophenyl)-3,3,3-trifluoro-2-hydroxypropanoyl]piperidin-4-yl}methyl)piperidin-1-yl]-N,N-dimethylpyridine-3-carboxamide], the “LXR beta Activity @ max dose (%)” value in experiment [1] (setting [3]) is 51%. In addition, the EC50 in experiment [1] (read-out: LXR beta IP) amounted to 3 nM. Besides, the “LXR alpha Activity @ max dose (%)” value in experiment [2] (setting [3]) came to 0%. Besides, the “LXR alpha IP (nM)” value in experiment [2] was “NO IP”.
With `CC(C)c1cccc([C@@](O)(C(=O)N2CCC(CC3CCN(c4ccc(C(=O)N(C)C)c(Cl)c4)CC3)CC2)C(F)(F)F)c1` [Example 2-95, 2-chloro-N,N-dimethyl-4-{4-[(1-{(2R)-3,3,3-trifluoro-2-hydroxy-2-[3-(1-methylethyl)phenyl]propanoyl}piperidin-4-yl)methyl]piperidin-1-yl}benzamide], the figures for the Emax in experiment [1] (setting [3]) and in experiment [2] (setting [3]) were 50% and 15%, respectively. Further, the EC50 came out at 6 nM in experiment [1] (read-out: LXR beta IP) and 341 nM in experiment [2].
For `CN(C)C(=O)c1ccc(N2CCC(CC3CCN(C(=O)[C@](O)(c4cccc(OC(F)(F)F)c4)C(F)(F)F)CC3)CC2)cc1Cl` [Example 2-91, 2-chloro-N,N-dimethyl-4-{4-[(1-{(2R)-3,3,3-trifluoro-2-hydroxy-2-[3-(trifluoro-methoxy)phenyl]propanoyl}piperidin-4-yl)methyl]piperidin-1-yl}benzamide], the Emax in experiment [1] (setting [3]) was 58%; in experiment [2] (setting [3]), 20%. For the same compound, the EC50 in experiment [1] (read-out: LXR beta IP) was 23 nM; in experiment [2], 199 nM.
Compound `COc1cccc([C@@](O)(C(=O)N2CCC(CC3(C)CCN(c4ccc(C(=O)N(C)C)c(Cl)c4)CC3)CC2)C(F)(F)F)c1` [Example 3-1, (R)-2-chloro-N,N-dimethyl-4-(4-methyl-4-((1-(3,3,3-trifluoro-2-hydroxy-2-(3-methoxyphenyl)propanoyl)piperidin-4-yl)methyl)piperidin-1-yl)benzamide] came in with an EC50 in experiment [1] (LXR beta IP (nM)) of 35 nM. The figures for the Emax in experiment [1] and in experiment [2] (setting [3]) were 63% and 5%, respectively. Besides, in experiment [2], the “LXR alpha IP (nM)” value is listed as “NO IP”.
With `Cc1cc(N2CCC(CC3(C)CCN(C(=O)[C@](O)(c4cc(F)cc(Cl)c4)C(F)(F)F)CC3)CC2)ccc1C(=O)N(C)C` [Example 2-75, 4-[4-({1-[(2R)-2-(3-chloro-5-fluorophenyl)-3,3,3-trifluoro-2-hydroxy-propanoyl]-4-methylpiperidin-4-yl}methyl)piperidin-1-yl]-N,N,2-trimethyl-benzamide], the Emax in experiment [1] (setting [3]) amounted to 80%; in experiment [2] (setting [3]) it was 31%. In addition, the results for the EC50 in experiment [1] (read-out: LXR beta IP) and in experiment [2] were 12 nM and 167 nM, respectively.
`COc1cccc([C@@](O)(C(=O)N2CCCC(CC3CCN(c4ccc(C(=O)N(C)C)c(Cl)c4)CC3)CC2)C(F)(F)F)c1` (stereo partly drawn) [Example 2-161, 2-chloro-N,N-dimethyl-4-[4-({1-[(2R)-3,3,3-trifluoro-2-hydroxy-2-(3-methoxy-phenyl)propanoyl]azepan-4-yl}methyl)piperidin-1-yl]benzamide]: the results for the Emax in experiment [1] (setting [3]) and in experiment [2] (setting [3]) were 28% and 0%, respectively. The EC50 in experiment [1] (read-out: LXR beta IP) amounted to 13 nM. Besides, the “LXR alpha IP (nM)” value in experiment [2] is reported as “NO IP”.
As to `CN(C)C(=O)c1ccc(N2CCC(CC3CCN(C(=O)[C@@](O)(c4ccccc4)C(F)(F)F)CC3)CC2)cc1` [Example 2-127, N,N-dimethyl-4-[4-({1-[(2S)-3,3,3-trifluoro-2-hydroxy-2-phenyl-propanoyl]piperidin-4-yl}methyl)piperidin-1-yl]benzamide], the Emax in experiment [1] (setting [3]) is 68%; in experiment [2] (setting [3]) it was 9%. In experiment [1] (read-out: LXR beta IP), the EC50 is 877 nM. In addition, the “LXR alpha IP (nM)” value in experiment [2] is on record as “NO IP”.
Take `CC(C)Oc1cccc([C@@](O)(C(=O)N2CCC(CC3CCN(c4ccc(C(=O)N(C)C)cc4)CC3)CC2)C(F)(F)F)c1` [Example 2-135, N,N-dimethyl-4-{4-[(1-{(2R)-3,3,3-trifluoro-2-hydroxy-2-[3-(1-methylethoxy)phenyl]propanoyl}piperidin-4-yl)methyl]piperidin-1-yl}benzamide]: the Emax in experiment [1] (setting [3]) was found to be 63%; in experiment [2] (setting [3]), 3%. Besides, the EC50 in experiment [1] (read-out: LXR beta IP) was determined as 44 nM. Further, the “LXR alpha IP (nM)” value in experiment [2] is “NO IP”.
The matching figures for `CNC(=O)c1ccc(N2CCC(CC3CCN(C(=O)[C@](O)(c4cccc(OC(C)C)c4)C(F)(F)F)CC3)CC2)cc1Cl` [Example 7-121, 2-chloro-N-methyl-4-{4-[(1-{(2R)-3,3,3-trifluoro-2-hydroxy-2-[3-(1-methylethoxy)phenyl]propanoyl}piperidin-4-yl)methyl]piperidin-1-yl}benzamide]: 69%, 11%, 21 nM and “NO IP”.
For the compound `COc1cccc([C@](N)(C(=O)N2CCC(CC3CCN(c4ccc(C(=O)N(C)C)c(Cl)c4)CC3)CC2)C(F)(F)F)c1` [Example 2-119, 4-[4-({1-[(2S)-2-amino-3,3,3-trifluoro-2-(3-methoxy-phenyl)propanoyl]piperidin-4-yl}methyl)piperidin-1-yl]-2-chloro-N,N-dimethyl-benzamide], the Emax in experiment [1] (setting [3]) was 99%; in experiment [2] (setting [3]), 11%. In addition, the EC50 in experiment [1] (read-out: LXR beta IP) worked out at 208 nM. Also, the “LXR alpha IP (nM)” value in experiment [2] is “NO IP”.
As for `COc1cccc([C@@](O)(C(=O)N2CCC(CC3CN(c4ccc(C(=O)N(C)C)c(C)n4)C3)CC2)C(F)(F)F)c1` [Example 7-13, N,N,2-trimethyl-6-[3-({1-[(2R)-3,3,3-trifluoro-2-hydroxy-2-(3-methoxyphenyl)propanoyl]piperidin-4-yl}methyl)azetidin-1-yl]pyridine-3-carboxamide], the figures for the Emax in experiment [1] (setting [3]) and in experiment [2] (setting [3]) were 72% and 4%, respectively. Moreover, the EC50 in experiment [1] (read-out: LXR beta IP) was 1150 nM. The “LXR alpha IP (nM)” value in experiment [2] is “NO IP”.
For `CN(C)C(=O)c1ccc(N2CCC(CC3CCN(C(=O)C(O)(c4ccccc4)c4ccccc4)CC3)CC2)nc1Cl` [Example 7-95, 2-chloro-6-[4-({1-[hydroxy(diphenyl)acetyl]piperidin-4-yl}methyl)piperidin-1-yl]-N,N-dimethylpyridine-3-carboxamide], the EC50 in experiment [1] (LXR beta IP (nM)) was 98 nM. For the same compound, the Emax in experiment [1] was found to be 21%. Besides, in experiment [2], the “LXR alpha IP (nM)” value is listed as “NO IP” and the Emax worked out at 1%.

The record behind these values is patent publication US10752587B2, “Homobispiperidinyl derivatives as liver X receptor beta agonists, compositions and their use” (Merck Sharp & Dohme Corp., priority 2015, dated 2020).
